Reference: patent publication US20160046618A1, “Cyclopropyl Fused Thiazin-2-Amine Compounds as Beta-Secretase Inhibitors and Methods of Use” (AMGEN INC., priority 2014, published 2016)

Key:
human recombinant BACE1 = human recombinant BACE1 (Homo sapiens (Human), UniProt P56817); assay: In vitro enzymatic BACE1 FRET assay; format: biochemical; conditions: BACE1 FRET enzyme assay; read-out: IC50 IP (μM) BACE1 enzyme
Summary of the method: (§1)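 Ni-NTA-purified recombinant enzyme incubated 1 h with 50 nM FRET peptide substrate (fluorophore and quencher flanking the BACE cleavage site). Reaction stopped with Tris buffer raising pH to neutrality; cleavage-released fluorescence read at ex 488/em 590 nm.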

human recombinant BACE2 = human recombinant BACE2 (Homo sapiens (Human), UniProt Q9Y5Z0); assay: In vitro enzymatic BACE2 FRET assay; format: biochemical; conditions: BACE2 FRET enzyme assay; read-out: IC50 IP (μM) BACE2 enzyme
Summary of the method: as §1

[1] = tested on: Aβ40 in conditioned medium of cells stably expressing Amyloid Precursor Protein (APP); assay: In vitro BACE-1 cell-based assay (Aβ40 sandwich ELISA); conditions: BACE1 cell-based assay; read-out: IC50 IP (μM) BACE1 cell
Summary of the method: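 APP-stable cells, pre-cultured 24 h at 37° C in DMEM/10% FBS, were treated 24 h with compound in a 10-point series starting at 100 μM or 10 μM (0.1% DMSO final). Secreted Aβ40 in conditioned medium was measured by pAb40/biotin-6E10 sandwich ELISA with Europium time-resolved fluorescence; IC50 from percent inhibition versus concentration.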

Recombinant Cat D = Recombinant Cat D (Homo sapiens (Human), UniProt P07339); assay: In vitro enzymatic Cathepsin D (Cat D) FRET assay; format: biochemical; conditions: Cathepsin D FRET enzyme assay; read-out: IC50 IP (μM) CatD
Summary of the method: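 Assay pH is 3.5 (0.05 M citrate, 5 mM CHAPS, 10% DMSO final) with Cat D from CHO cells. A 20 nM quenched peptide substrate is cleaved over one hour; the reaction is ended with Tris and read by fluorescence (ex 500, em 580 nm).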

Aβ 40 in rat CSF = assay: In vivo inhibition of beta-secretase: Aβ40 reduction in rat CSF; conditions: after 4 h
Source text: (§2) In Vivo Inhibition of Beta-Secretase
Several animal models, including mouse, rat, dog, and monkey, may be used to screen for inhibition of beta-secretase activity in vivo following administration of a test compound sample. Animals used in this invention can be wild type, transgenic, or gene knockout animals. For example, the Tg2576 mouse model, prepared and conducted as described in Hsiao et al., 1996, Science 274, 99-102, and other non-transgenic or gene knockout animals are useful to analyze in vivo inhibition of Amyloid beta peptide (Abeta) production in the presence of inhibitory test compounds. Generally, 2 to 18 month old Tg2576 mice, gene knockout mice or non-transgenic animals are administered test compounds formulated in vehicles, such as cyclodextran, phosphate buffers, hydroxypropyl methylcellulose or other suitable vehicles. One to twenty-four hours following the administration of compound, animals are sacrificed, and brains as well as cerebrospinal fluid (CSF) and plasma are removed for analysis of A-beta levels and drug or test compound concentrations (Dovey et al., 2001, Journal of Neurochemistry, 76,173-181) Beginning at time 0, animals are administered by oral gavage, or other means of delivery such as intravenous injection, an inhibitory test compound of up to 100 mg/kg in a standard, conventional formulation, such as 2% hydroxypropyl methylcellulose, 1% Tween80. A separate group of animals receive 2% hydroxypropyl methylcellulose, 1% Tween80 alone, containing no test compound, and serve as a vehicle-control group. At the end of the test period, animals are sacrificed and brain tissues, plasma or cerebrospinal fluid are collected. […] Homogenates are centrifuged at 355,000 g, 4° C. for 30 minutes. CSF or brain supernatants are then analyzed for the presence of A-beta peptide by specific sandwich ELISA assays based on ECL (Electrochemiluminescence) technology. For example, rat Abeta40 is measured using biotinylated-4G8 (Signet) as a capture antibody and Fab40 (an in-house antibody specific to the C-terminal of Abeta40) as a detection antibody. For example, 4 hours after administration of 30 mg/kg oral dose of the test compound in 2% hydroxypropyl methylcellulose, 1% Tween80 (pH2.2) to 200 g male Sprague Dawley rats, amyloid beta peptide levels are measured for reduction by X % and Y % in cerebrospinal fluid and brain, respectively, when compared to the levels measured in the vehicle-treated or control mice.
(§3) Actual vehicles used: Oral: 2% HPMC, 1% Tween80, pH 2.2
The compounds of the invention may be shown to reduce the formation and/or deposition of amyloid beta peptide in the cerebrospinal fluid (CSF) as well as in the brain of a mouse or rat at either 3 mpk, 10 mpk or 30 mpk (mpk=mg compound per kg weight of the animal) dosing concentrations after 4 h.

Aβ 40 in rat brain = assay: In vivo inhibition of beta-secretase: Aβ40 reduction in rat brain; conditions: after 4 h
Source text: as §2
Several animal models, including mouse, rat, dog, and monkey, may be used to screen for inhibition of beta-secretase activity in vivo following administration of a test compound sample. Animals used in this invention can be wild type, transgenic, or gene knockout animals. […] One to twenty-four hours following the administration of compound, animals are sacrificed, and brains as well as cerebrospinal fluid (CSF) and plasma are removed for analysis of A-beta levels and drug or test compound concentrations (Dovey et al., 2001, Journal of Neurochemistry, 76,173-181) Beginning at time 0, animals are administered by oral gavage, or other means of delivery such as intravenous injection, an inhibitory test compound of up to 100 mg/kg in a standard, conventional formulation, such as 2% hydroxypropyl methylcellulose, 1% Tween80. A separate group of animals receive 2% hydroxypropyl methylcellulose, 1% Tween80 alone, containing no test compound, and serve as a vehicle-control group. At the end of the test period, animals are sacrificed and brain tissues, plasma or cerebrospinal fluid are collected. […] Homogenates are centrifuged at 355,000 g, 4° C. for 30 minutes. CSF or brain supernatants are then analyzed for the presence of A-beta peptide by specific sandwich ELISA assays based on ECL (Electrochemiluminescence) technology. For example, rat Abeta40 is measured using biotinylated-4G8 (Signet) as a capture antibody and Fab40 (an in-house antibody specific to the C-terminal of Abeta40) as a detection antibody.
as §3

Sequence of Recombinant Cat D (P07339 65-412): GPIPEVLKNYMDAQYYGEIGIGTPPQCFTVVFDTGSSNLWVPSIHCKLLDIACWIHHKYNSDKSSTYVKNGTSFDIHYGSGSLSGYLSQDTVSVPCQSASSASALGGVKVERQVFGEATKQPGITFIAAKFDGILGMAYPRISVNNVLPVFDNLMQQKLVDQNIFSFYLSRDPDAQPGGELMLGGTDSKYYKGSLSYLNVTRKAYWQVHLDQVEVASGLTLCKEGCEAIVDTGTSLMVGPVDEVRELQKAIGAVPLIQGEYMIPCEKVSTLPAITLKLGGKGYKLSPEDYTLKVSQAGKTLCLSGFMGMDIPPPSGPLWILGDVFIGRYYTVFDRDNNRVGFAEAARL
Sequence of human recombinant BACE2 (Q9Y5Z0 63-518): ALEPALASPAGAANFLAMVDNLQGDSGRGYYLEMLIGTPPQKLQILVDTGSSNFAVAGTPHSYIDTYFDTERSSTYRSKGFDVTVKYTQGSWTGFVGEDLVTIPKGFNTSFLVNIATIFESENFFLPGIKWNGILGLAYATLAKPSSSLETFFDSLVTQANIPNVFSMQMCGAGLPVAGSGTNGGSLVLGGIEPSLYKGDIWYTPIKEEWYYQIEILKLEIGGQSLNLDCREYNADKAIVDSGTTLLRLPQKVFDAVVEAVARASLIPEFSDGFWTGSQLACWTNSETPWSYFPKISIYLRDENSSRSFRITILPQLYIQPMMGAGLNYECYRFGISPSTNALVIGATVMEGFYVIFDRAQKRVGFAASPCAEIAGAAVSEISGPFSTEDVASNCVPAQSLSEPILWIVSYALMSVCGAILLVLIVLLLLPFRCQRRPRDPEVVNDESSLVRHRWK
Sequence of human recombinant BACE1 (P56817 46-501): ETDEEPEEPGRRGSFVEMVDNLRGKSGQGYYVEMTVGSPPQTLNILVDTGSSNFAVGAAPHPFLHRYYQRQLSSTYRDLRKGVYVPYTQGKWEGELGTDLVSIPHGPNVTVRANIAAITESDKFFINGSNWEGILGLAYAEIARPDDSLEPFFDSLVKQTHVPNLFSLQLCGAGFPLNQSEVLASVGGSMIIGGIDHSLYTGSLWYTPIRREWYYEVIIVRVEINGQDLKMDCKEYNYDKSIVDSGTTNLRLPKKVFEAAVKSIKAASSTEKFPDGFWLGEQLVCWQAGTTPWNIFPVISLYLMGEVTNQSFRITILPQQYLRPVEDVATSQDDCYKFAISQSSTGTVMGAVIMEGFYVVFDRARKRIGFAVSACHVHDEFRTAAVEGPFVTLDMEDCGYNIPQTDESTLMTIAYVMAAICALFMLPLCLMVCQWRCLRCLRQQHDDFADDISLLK

| SMILES | IC50 (human recombinant BACE1) | IC50 (human recombinant BACE2) | IC50 [1] | IC50 (Recombinant Cat D) | % Aβ 40 reduction in rat CSF at 10 mpk (Aβ 40 in rat CSF) | % Aβ 40 reduction in rat brain at 10 mpk (Aβ 40 in rat brain) | % Aβ 40 reduction in rat CSF (3 mpk) (Aβ 40 in rat CSF) | % Aβ 40 reduction in rat brain (3 mpk) (Aβ 40 in rat brain) |
| --- | --- | --- | --- | --- | --- | --- | --- | --- |
| N#Cc1cnc2c(Nc3ccc(F)c([C@@]4(CF)N=C(N)S[C@H]5CC54)c3)nccc2c1 (stereo in doubt) [Example 38, 8-((3-((1S,5S,6S)-3-amino-5-(fluoromethyl)-2-thia-4-azabicyclo[4.1.0]hept-3-en-5-yl)-4-fluorophenyl)amino)-1,7-naphthyridine-3-carbonitrile] | 0.0157 µM | 0.00728 µM | 0.0144 µM | > 133 µM | 66% | 44% | – | – |
| NC1=N[C@](CF)(c2cc(Nc3nccc4nc(OCc5ncco5)cnc34)ccc2F)C2C[C@@H]2S1 (stereo in doubt) [Example 56, N-(3-((1S,5S,6S)-3-amino-5-(fluoromethyl)-2-thia-4-azabicyclo[4.1.0]hept-3-en-5-yl)-4-fluorophenyl)-2-(1,3-oxazol-2-ylmethoxy)pyrido[3,4-b]pyrazin-5-amine] | 0.00538 µM | 0.27 µM | 0.0135 µM | > 400 µM | 50% | 32% | – | – |
| NC1=N[C@](CF)(c2cc(NC(=O)c3ccc(Cl)cn3)ccc2F)[C@@H]2C[C@@H]2S1 [Example 1, N-(3-((1S,5S,6S)-3-amino-5-(fluoromethyl)-2-thia-4-azabicyclo[4.1.0]hept-3-en-5-yl)-4-fluorophenyl)-5-chloro-2-pyridinecarboxamide] | 0.00551 µM | 0.0022 µM | 0.00871 µM | 74.5 µM | 58% | 28% | – | – |
| N#Cc1ccc(C(=O)Nc2ccc(F)c([C@@]3(CF)N=C(N)S[C@H]4C[C@H]43)c2)nc1 [Example 2, N-(3-((1S,5S,6S)-3-amino-5-(fluoromethyl)-2-thia-4-azabicyclo[4.1.0]hept-3-en-5-yl)-4-fluorophenyl)-5-cyano-2-pyridinecarboxamide] | 0.00747 µM | 0.0129 µM | 0.00437 µM | > 400 µM | 72% | 67% | – | – |
| NC1=N[C@](CF)(c2cc(NC(=O)c3ccc(Cl)cn3)cc(F)c2F)[C@@H]2C[C@@H]2S1 [Example 5, N-(3-((1S,5S,6S)-3-amino-5-(fluoromethyl)-2-thia-4-azabicyclo[4.1.0]hept-3-en-5-yl)-4,5-difluorophenyl)-5-chloro-2-pyridinecarboxamide] | 0.00855 µM | 0.00154 µM | 0.0326 µM | 1420 µM | 43% | 19% | – | – |
| N#Cc1ccc(C(=O)Nc2cc(F)c(F)c([C@@]3(CF)N=C(N)S[C@H]4C[C@H]43)c2)nc1 [Example 11, N-(3-((1S,5S,6S)-3-amino-5-(fluoromethyl)-2-thia-4-azabicyclo[4.1.0]hept-3-en-5-yl)-4,5-difluorophenyl)-5-cyano-2-pyridinecarboxamide] | 0.0104 µM | 0.0275 µM | 0.0119 µM | > 400 µM | – | – | 41 (3 mpk) % | 25 (3 mpk) % |
| Cc1cc(C#N)cnc1C(=O)Nc1cc(F)c(F)c([C@@]2(CF)N=C(N)S[C@H]3C[C@H]32)c1 [Example 13, N-(3-((1S,5S,6S)-3-amino-5-(fluoromethyl)-2-thia-4-azabicyclo[4.1.0]hept-3-en-5-yl)-4,5-difluorophenyl)-5-cyano-3-methyl-2-pyridinecarboxamide] | 0.00548 µM | 0.00618 µM | 0.00899 µM | > 400 µM | 70% | 56% | – | – |
| C#CCOc1cnc(C(=O)Nc2cc(F)c(F)c([C@@]3(CF)N=C(N)S[C@H]4C[C@H]43)c2)cn1 [Example 20, N-(3-((1S,5S,6S)-3-amino-5-(fluoromethyl)-2-thia-4-azabicyclo[4.1.0]hept-3-en-5-yl)-4,5-difluorophenyl)-5-(2-propyn-1-yloxy)-2-pyrazinecarboxamide] | 0.0006 µM | 0.0394 µM | 0.00064 µM | 47.1 µM | 80% | 76% | – | – |
| C[C@]1(c2cc(Nc3nccc4cc(C#N)cnc34)cc(F)c2F)N=C(N)S[C@H]2C[C@H]21 [Example 21, 8-((3-((1S,5S,6S)-3-amino-5-methyl-2-thia-4-azabicyclo[4.1.0]hept-3-en-5-yl)-4,5-difluorophenyl)amino)-1,7-naphthyridine-3-carbonitrile] | 0.0145 µM | 0.00534 µM | 0.0164 µM | > 133 µM | 61% | 40% | – | – |
| C#CCOc1cnc(C(=O)Nc2cc(F)c(F)c([C@@]3(C)N=C(N)S[C@H]4C[C@H]43)c2)cn1 [Example 23, N-(3-((1S,5S,6S)-3-amino-5-methyl-2-thia-4-azabicyclo[4.1.0]hept-3-en-5-yl)-4,5-difluorophenyl)-5-(2-propyn-1-yloxy)-2-pyrazinecarboxamide] | 0.00047 µM | 0.0374 µM | 0.00062 µM | 81.9 µM | – | – | 70 (3 mpk) % | 61 (3 mpk) % |
| COC[C@]12C[C@H]1[C@@](C)(c1cc(Nc3nccc4cc(C#N)cnc34)cc(F)c1F)N=C(N)S2 [Example 33, 8-((3-((1S,5S,6S)-3-amino-1-(methoxymethyl)-5-methyl-2-thia-4-azabicyclo[4.1.0]hept-3-en-5-yl)-4,5-difluorophenyl)amino)-1,7-naphthyridine-3-carbonitrile] | 0.00203 µM | 0.00169 µM | 0.00383 µM | > 400 µM | 65% | 53% | – | – |
